Measured values published in ChEMBL document CHEMBL5154935, “Design, Synthesis, and Biological Evaluation of Novel Evodiamine Derivatives as Potential Antihepatocellular Carcinoma Agents” (J Med Chem, 2022).
The source made the active and inactive calls. The calls are words filed in the database; no cut-off is given here.

How the values were obtained:
[1] = Induction of apoptosis in rat HSC-T6 cells assessed as necrotic cells at 40 nM pretreated with TGFbeta-1 for 1 day followed by compound addition and measured after 24 hrs by flow cytometry (reference value: 0.56 %); type: functional
HepG2 = assay: Antiproliferative activity against human HepG2 cells treated for 72 hrs by MTT assay; type: functional, cell-based; settings: HepG2, 72 h
SK-HEP1 [2] = assay: Antiproliferative activity against human SK-HEP1 cells treated for 72 hrs by MTT assay; type: functional, cell-based; settings: SK-HEP1, 72 h
HCCLM9 = assay: Antiproliferative activity against human HCCLM9 cells treated for 72 hrs by MTT assay; type: functional, cell-based; settings: HCCLM9, 72 h
SK-HEP1 [3] = assay: Antiproliferative activity against human SK-Hep1 cells assessed as inhibition of cell viability by MTT assay; type: functional, cell-based; settings: time 24-72 hrs, TDE = time-dependent effect
Huh-7 [4] = assay: Induction of cell cycle arrest in human Huh-7 cells assessed as accumulation at G2 phase at 40 nM treated for 24 hrs by PI staining based flow cytometry (reference value: 15.90 %); type: functional
SK-HEP1 [5] = assay: Induction of cell cycle arrest in human SK-Hep1 cells assessed as accumulation at S phase at 40 nM treated for 24 hrs by PI staining based flow cytometry (reference value: 24.98 %); type: functional
SK-HEP1 [6] = assay: Induction of cell cycle arrest in human SK-Hep1 cells assessed as accumulation at S phase at 10 nM treated for 24 hrs by PI staining based flow cytometry (reference value: 24.98 %); type: functional
SK-HEP1 [7] = assay: Induction of apoptosis in human SK-Hep1 cells assessed as cell shrinkage incubated for 24 hrs by Giemsa staining based microscopy; type: functional; settings: dose 12-60 nM, DDE = dose-dependent effect
SK-HEP1 [8] = assay: Induction of apoptosis in human SK-Hep1 cells assessed as chromatin agglutination incubated for 24 hrs by Giemsa staining based microscopy; type: functional, cell-based; settings: dose 12-60 nM, DDE = dose-dependent effect
Huh-7 [9] = assay: Induction of apoptosis in human Huh-7 cells assessed as viable cells at 10 nM incubated for 24 hrs by annexin V-FITC/PI staining flow cytometry (reference value: 97.3 %); type: functional; settings: read-out: Activity
Huh-7 [10] = assay: Induction of apoptosis in human Huh-7 cells assessed as early apoptotic cells at 10 nM incubated for 24 hrs by annexin V-FITC/PI staining flow cytometry (reference value: 0.33 %); type: functional
Huh-7 [11] = assay: Induction of apoptosis in human Huh-7 cells assessed as necrotic cells at 10 nM incubated for 24 hrs by annexin V-FITC/PI staining flow cytometry (reference value: 1.08 %); type: functional
Huh-7 [12] = assay: Induction of apoptosis in human Huh-7 cells assessed as viable cells at 40 nM incubated for 24 hrs by annexin V-FITC/PI staining flow cytometry (reference value: 97.3 %); type: functional; settings: read-out: Activity
Huh-7 [13] = assay: Induction of apoptosis in human Huh-7 cells assessed as early apoptotic cells at 40 nM incubated for 24 hrs by annexin V-FITC/PI staining flow cytometry (reference value: 0.33 %); type: functional
Huh-7 [14] = assay: Induction of apoptosis in human Huh-7 cells assessed as late apoptotic cells at 80 nM incubated for 24 hrs by annexin V-FITC/PI staining flow cytometry (reference value: 1.33 %); type: functional
Huh-7 [15] = assay: Induction of apoptosis in human Huh-7 cells assessed as necrotic cells at 80 nM incubated for 24 hrs by annexin V-FITC/PI staining flow cytometry (reference value: 1.08 %); type: functional
SK-HEP1 [16] = assay: Induction of apoptosis in human SK-Hep1 cells assessed as early apoptotic cells at 10 nM incubated for 24 hrs by annexin V-FITC/PI staining flow cytometry (reference value: 0.30 %); type: functional
SK-HEP1 [17] = assay: Induction of apoptosis in human SK-Hep1 cells assessed as viable cells at 40 nM incubated for 24 hrs by annexin V-FITC/PI staining flow cytometry (reference value: 97.8 %); type: functional; settings: read-out: Activity
SK-HEP1 [18] = assay: Induction of apoptosis in human SK-Hep1 cells assessed as late apoptotic cells at 40 nM incubated for 24 hrs by annexin V-FITC/PI staining flow cytometry (reference value: 1.13 %); type: functional
SK-HEP1 [19] = assay: Induction of apoptosis in human SK-Hep1 cells assessed as early apoptotic cells at 80 nM incubated for 24 hrs by annexin V-FITC/PI staining flow cytometry (reference value: 0.30 %); type: functional
SK-HEP1 [20] = assay: Induction of apoptosis in human SK-Hep1 cells assessed as late apoptotic cells at 80 nM incubated for 24 hrs by annexin V-FITC/PI staining flow cytometry (reference value: 1.13 %); type: functional
SK-HEP1 [21] = assay: Induction of apoptosis in human SK-Hep1 cells assessed as necrotic cells at 80 nM incubated for 24 hrs by annexin V-FITC/PI staining flow cytometry (reference value: 0.73 %); type: functional
SK-HEP1 [22] = assay: Inhibition of cell migration in human SK-HEP1 cells incubated for 24 hrs by scratch wound healing assay; type: functional, cell-based; settings: dose 3-18 nM, DDE = dose-dependent effect
Huh-7 [23] = assay: Inhibition of cell migration in human Huh-7 cells at 3 to 18 nM incubated for 24 hrs by crystal violet staining based transwell assay; type: functional; settings: dose 3-18 nM
HSC-T6 = assay: Suppression of TGF-beta-1-stimulated rat HSC-T6 cells activation assessed as reduction in Col-1 levels at 10 to 80 nM preincubated with TGFbeta-1 followed by compound addition and measured after 24 to 48 hrs by ELISA; type: functional, cell-based; settings: dose 10-80 nM, time 24-48 hrs
[24] = Induction of apoptosis in rat HSC-T6 cells assessed as viable cells at 40 nM pretreated with TGFbeta-1 for 1 day followed by compound addition and measured after 24 hrs by flow cytometry (reference value: 97.5 %); type: functional; settings: read-out: Activity
[25] = Induction of apoptosis in rat HSC-T6 cells assessed as viable cells at 80 nM pretreated with TGFbeta-1 for 1 day followed by compound addition and measured after 24 hrs by flow cytometry (reference value: 97.5 %); type: functional; settings: read-out: Activity

Row | SMILES | Activity [1] [%] | IC50 (HepG2) [µM] | IC50 (SK-HEP1 [2]) [µM] | IC50 (HCCLM9) [µM] | Activity (SK-HEP1 [3]) | Activity (Huh-7 [4]) [%] | Activity (SK-HEP1 [5]) [%] | Activity (SK-HEP1 [6]) [%] | Activity (SK-HEP1 [7]) | Activity (SK-HEP1 [8]) | viability at 0.01 µM (Huh-7 [9]) [%] | Activity (Huh-7 [10]) [%] | Activity (Huh-7 [11]) [%] | viability at 0.04 µM (Huh-7 [12]) [%] | Activity (Huh-7 [13]) [%] | Activity (Huh-7 [14]) [%] | Activity (Huh-7 [15]) [%] | Activity (SK-HEP1 [16]) [%] | viability at 0.04 µM (SK-HEP1 [17]) [%] | Activity (SK-HEP1 [18]) [%] | further results
1 | O=C1c2cc(F)cc(F)c2N(c2cccc(F)c2)C2c3[nH]c4ccc(O)cc4c3CCN12 (stereo unspecified) | 1.11 | 0.09 | 0.07 | 0.11 | Tde | 63.75 | 4.11 | 18.42 | Dde | Dde | 93.1 | 0.73 | 1.53 | 79.5 | 2.51 | 30 | 9.82 | 0.91 | 74.7 | 13.6 | Activity (SK-HEP1 [19]): 0.75%; Activity (SK-HEP1 [20]): 15.4%; Activity (SK-HEP1 [21]): 2.39%; inhibition (SK-HEP1 [22]): Dde; inhibition (Huh-7 [23]): Active; inhibition (HSC-T6): Active; viability at 0.04 µM [24]: 98.3%; viability at 0.08 µM [25]: 83.8%
2 | CC(=O)Oc1ccc2[nH]c3c(c2c1)CCN1C(=O)c2cc(F)cc(F)c2N(c2cccc(F)c2)C31 (stereo unspecified) | 1.29 | 0.18 | 0.06 | 0.1 | Tde | 50.27 | 4.18 | 19.4 | Dde | Dde | 93.8 | 0.63 | 1.51 | 62.9 | 1.37 | 29.4 | 9.88 | 5.25 | 75.9 | 13.4 | Activity (SK-HEP1 [19]): 13.5%; Activity (SK-HEP1 [20]): 19.5%; Activity (SK-HEP1 [21]): 2.63%; inhibition (SK-HEP1 [22]): Dde; inhibition (Huh-7 [23]): Active; inhibition (HSC-T6): Active; viability at 0.04 µM [24]: 85.6%; viability at 0.08 µM [25]: 41.7%
